Data reported in paper PMC3914206.
Where “and” joins values, the source holds several entries; their conditions need not be identical. Equal entries are not always repeated.

Tests used:
[1] = Pharmacokinetics after intravenous and oral delivery in mice; assay type: in vivo
Experimental: The pharmacokinetic properties of 26 were also evaluated following intravenous and oral delivery in mice.

[2] = molecular target: wild-type LRRK2 (Homo sapiens, UniProt Q5S007); test: LRRK2 cellular assay, Ser910/Ser935 phosphorylation in stably transfected HEK293 cells; settings: up to 3 μM, 90 min
Experimental: (§1) Our cellular assay for LRRK2 measures the ability of compounds to inhibit LRRK2-dependent phosphorylation of Ser910 and Ser935 in stably transformed HEK293 cells as described previously [[21,25]].
(§2) As there are no validated direct phosphorylation substrates of LRRK2, we monitored phosphorylation of Ser910 and Ser935, two residues whose phosphorylation is known to be dependent upon LRRK2 kinase activity [25]
(§3) Cell culture, treatments and cell lysis. HEK293 was cultured in DMEM (Dulbecco's Modified Eagle's medium) supplemented with 10% FBS (fetal bovine serum), 2 mM glutamine and 1× penicillin/streptomycin solution. […] Following treatment, cells were washed once with phosphate buffered saline (PBS) buffer and lysed with lysis buffer (50 mM Tris/HCl, pH 7.5, 1 mM EGTA, 1 mM EDTA, 1 mM sodium orthovanadate, 10 mM sodium β-glycerophosphate, 50 mM NaF, 5 mM sodium pyrophosphate, 0.27 M sucrose, 1 mM benzamidine, 2 mM phenylmethanesulphonylfluoride (PMSF) and 1% Triton X-100). When not used immediately, all lysate supernatants were snap-frozen in liquid nitrogen and stored at −80 °C until use. Protein concentrations were determined following centrifugation of the lysate at 16,000× g at 4 °C for 20 min using the Bradford method with BSA as the standard. Transient transfection of HEK 293 cells was performed using the polyethyleneimine (PEI) method [35]. […]

[3] = molecular target: T1, selected panels of kinases in HeLa and PC3 cell lysates (Homo sapiens, UniProt Q8IU85); test: KiNativ chemical proteomics profiling in HeLa and PC3 cell lysates; assay type: binding; settings: 10 uM; proteome HEL; peptide LFAVkCIPK; labeling site Lys1
T1 construct: endogenous in cells; host or cells: HeLa and PC3 cell lysates

[4] = molecular target: T2, selected panels of kinases in HeLa and PC3 cell lysates (Homo sapiens, UniProt Q9Y616); test: as above; assay type: binding; settings: 10 uM; proteome HEL; peptide […]k[…]; labeling site Protein Kinase Domain
T2 construct: endogenous in cells; host or cells: HeLa and PC3 cell lysates

[5] = molecular target: T3, selected panels of kinases in HeLa and PC3 cell lysates (Homo sapiens, UniProt Q9P2K8); test: as above; assay type: binding; settings: 10 uM
T3 construct: endogenous in cells; host or cells: HeLa and PC3 cell lysates

[6] = molecular target: T4, selected panels of kinases in HeLa and PC3 cell lysates (Homo sapiens, UniProt Q14012); test: as above; assay type: binding; settings: 10 uM; proteome HEL; peptide LVAIkCIAK; labeling site Lys1
T4 construct: endogenous in cells; host or cells: HeLa and PC3 cell lysates

[7] = molecular target: T5, selected panels of kinases in HeLa and PC3 cell lysates (Homo sapiens, UniProt O60674); test: as above; assay type: binding; settings: 10 uM; proteome HEL; peptide IGDFGLTk[…]; labeling site Activation Loop
T5 construct: endogenous in cells; host or cells: HeLa and PC3 cell lysates

[8] = molecular target: T6, selected panels of kinases in HeLa and PC3 cell lysates (Homo sapiens, UniProt Q00536); test: as above; assay type: binding; settings: 10 uM; PCTAIRE1; peptide LTDNLVALkEIR; proteome PC3; labeling site Lys1
T6 construct: endogenous in cells; host or cells: HeLa and PC3 cell lysates

[9] = molecular target: T7, selected panels of kinases in HeLa and PC3 cell lysates (Homo sapiens, UniProt Q9UHD2); test: as above; assay type: binding; settings: 10 uM; TBK1; peptide TGDLFAIk[…]; proteome HEL; labeling site Lys1
T7 construct: endogenous in cells; host or cells: HeLa and PC3 cell lysates

[10] = system: endogenous LRRK2; assay type: cell-based; settings: EBV immortalized human lymphoblastoid cells, 90 min
[11] = molecular target: LRRK2[A2016T] (Homo sapiens, UniProt Q5S007, A2016T); test: LRRK2 cellular assay, Ser910/Ser935 phosphorylation in stably transfected HEK293 cells; settings: drug-resistant mutant, up to 3 μM
Experimental: as §1, §2, §3

[12] = molecular target: T8, ERK5 (Homo sapiens, UniProt Q13164); test: ERK5 autophosphorylation assay (EGF-stimulated, mobility shift immunoblot); assay type: cell-based; design: endogenous in cells; host or cells: HeLa; settings: inhibition of EGF-stimulated autophosphorylation of ERK5 in HeLa cells; read-out: Cellular EC50 (ERK5)
Description: Proteins from total cell lysates were resolved by 6% sodium dodecyl sulfate (SDS)-poly-acrylamide gel electrophoresis (PAGE), transferred to nitrocellulose membrane, blocked in 5% nonfat milk, and blotted with anti-ERK5 antibody.

[13] = molecular target: T8, ERK5; test: ERK5 kinase activity in vitro assay (32P-ATP, PIMtide substrate); assay type: biochemical; design: hexahistidine (His6) (N); made in house; host or cells: Spodoptera frugiperda 21 cells (baculovirus, Bac-to-Bac); settings: in vitro assay, recombinant active ERK5; read-out: Enzymatic IC50 (ERK5)
Experimental: pFastBAC vector encoding N-terminal hexahistidine-tagged human ERK5 and HA-tagged human MEK5-DD (constitutively active) were used to generate recombinant baculovirus using the Bac-to-Bac system (Invitrogen). […] His-tagged ERK5 was purified as described for His-tagged BRSK1[33], using 5 mL Ni-NTA-agarose resin (Qiagen) followed by gel filtration chromatography on Superdex 200HR column on an AKTA system (GE Healthcare).
Assays were carried out for 20 min at 30 °C, terminated by applying the reaction mixture onto p81 paper and the incorporated radioactivity measured as described previously.

[14] = molecular target: T9, panel of 442 kinases (Homo sapiens, UniProt Q5S007); assay type: binding; settings: Compound Concentration 10 µM
T9 construct: purchased KINOMEscan
Description: We assessed the selectivity of members of this scaffold using the KINOMEscan methodology across a near comprehensive panel of 442 kinases [[18,27]].

[15] = proteome HEL, peptide LDGCCYAVkR, labeling site Lys1
[16] = proteome PC3, peptide DLk[…], labeling site Lys2
[17] = proteome PC3, peptide LDGCCYAVkR, labeling site Lys1

T3 sequence (Q9P2K8 whole entry): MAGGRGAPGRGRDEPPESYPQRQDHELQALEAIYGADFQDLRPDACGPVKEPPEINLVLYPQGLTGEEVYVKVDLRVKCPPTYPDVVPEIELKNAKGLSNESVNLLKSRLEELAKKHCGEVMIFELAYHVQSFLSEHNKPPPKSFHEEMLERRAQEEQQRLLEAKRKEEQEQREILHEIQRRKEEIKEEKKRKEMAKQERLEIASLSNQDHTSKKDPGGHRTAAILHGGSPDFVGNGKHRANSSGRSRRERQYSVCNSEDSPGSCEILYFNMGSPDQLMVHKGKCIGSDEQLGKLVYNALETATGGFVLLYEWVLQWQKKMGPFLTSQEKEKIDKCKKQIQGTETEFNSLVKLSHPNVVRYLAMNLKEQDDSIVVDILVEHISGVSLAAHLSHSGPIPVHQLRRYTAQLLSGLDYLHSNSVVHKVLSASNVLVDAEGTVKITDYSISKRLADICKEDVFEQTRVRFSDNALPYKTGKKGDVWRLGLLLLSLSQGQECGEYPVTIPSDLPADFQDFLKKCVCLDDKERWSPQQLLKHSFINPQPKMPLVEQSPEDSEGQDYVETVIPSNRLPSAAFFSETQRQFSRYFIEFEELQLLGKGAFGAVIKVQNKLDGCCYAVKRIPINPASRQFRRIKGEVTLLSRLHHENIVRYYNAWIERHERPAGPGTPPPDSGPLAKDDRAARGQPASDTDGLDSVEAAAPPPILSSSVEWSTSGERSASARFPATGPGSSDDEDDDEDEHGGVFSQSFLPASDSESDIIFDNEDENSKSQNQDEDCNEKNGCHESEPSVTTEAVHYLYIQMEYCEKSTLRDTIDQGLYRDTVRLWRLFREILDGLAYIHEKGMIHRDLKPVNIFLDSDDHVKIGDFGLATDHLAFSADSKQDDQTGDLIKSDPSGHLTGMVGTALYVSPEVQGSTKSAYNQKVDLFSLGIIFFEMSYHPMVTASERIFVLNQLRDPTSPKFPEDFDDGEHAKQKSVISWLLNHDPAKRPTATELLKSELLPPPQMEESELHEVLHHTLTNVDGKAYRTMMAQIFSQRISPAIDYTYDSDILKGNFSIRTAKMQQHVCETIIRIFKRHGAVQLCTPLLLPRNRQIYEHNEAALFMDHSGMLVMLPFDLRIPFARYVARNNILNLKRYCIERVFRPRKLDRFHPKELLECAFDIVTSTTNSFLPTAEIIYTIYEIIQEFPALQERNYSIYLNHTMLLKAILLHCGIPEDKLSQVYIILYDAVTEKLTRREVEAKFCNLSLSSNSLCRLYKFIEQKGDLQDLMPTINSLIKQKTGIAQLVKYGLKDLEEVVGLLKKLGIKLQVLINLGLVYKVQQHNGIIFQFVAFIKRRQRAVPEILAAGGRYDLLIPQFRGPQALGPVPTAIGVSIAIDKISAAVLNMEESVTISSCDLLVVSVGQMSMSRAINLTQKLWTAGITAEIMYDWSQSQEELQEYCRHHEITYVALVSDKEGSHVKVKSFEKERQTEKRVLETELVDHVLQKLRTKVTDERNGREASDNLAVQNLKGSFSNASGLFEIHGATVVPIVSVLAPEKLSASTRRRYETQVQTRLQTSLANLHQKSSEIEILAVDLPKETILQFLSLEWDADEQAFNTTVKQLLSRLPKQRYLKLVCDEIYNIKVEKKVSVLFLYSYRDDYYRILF
T8 sequence (Q13164 whole entry): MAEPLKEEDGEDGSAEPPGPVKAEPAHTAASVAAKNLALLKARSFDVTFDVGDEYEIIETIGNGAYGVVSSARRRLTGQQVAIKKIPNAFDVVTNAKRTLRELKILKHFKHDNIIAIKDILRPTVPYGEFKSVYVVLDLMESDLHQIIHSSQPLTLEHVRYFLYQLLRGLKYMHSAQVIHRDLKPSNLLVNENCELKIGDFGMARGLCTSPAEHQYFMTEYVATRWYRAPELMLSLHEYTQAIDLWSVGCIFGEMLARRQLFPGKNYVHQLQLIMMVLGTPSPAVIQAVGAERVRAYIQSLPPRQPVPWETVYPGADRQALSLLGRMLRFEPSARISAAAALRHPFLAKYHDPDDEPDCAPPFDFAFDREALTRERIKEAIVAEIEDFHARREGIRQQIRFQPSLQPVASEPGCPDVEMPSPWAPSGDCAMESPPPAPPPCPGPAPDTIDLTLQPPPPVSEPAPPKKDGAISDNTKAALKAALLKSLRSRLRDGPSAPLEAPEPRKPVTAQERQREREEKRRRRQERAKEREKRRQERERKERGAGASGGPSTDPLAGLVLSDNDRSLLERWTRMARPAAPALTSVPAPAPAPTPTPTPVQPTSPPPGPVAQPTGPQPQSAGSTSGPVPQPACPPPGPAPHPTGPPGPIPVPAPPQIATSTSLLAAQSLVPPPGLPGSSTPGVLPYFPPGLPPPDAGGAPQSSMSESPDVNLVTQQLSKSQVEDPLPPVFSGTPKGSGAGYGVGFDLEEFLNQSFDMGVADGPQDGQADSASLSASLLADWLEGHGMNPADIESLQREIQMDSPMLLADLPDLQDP
T2 sequence (Q9Y616 whole entry, the tested form may be a part): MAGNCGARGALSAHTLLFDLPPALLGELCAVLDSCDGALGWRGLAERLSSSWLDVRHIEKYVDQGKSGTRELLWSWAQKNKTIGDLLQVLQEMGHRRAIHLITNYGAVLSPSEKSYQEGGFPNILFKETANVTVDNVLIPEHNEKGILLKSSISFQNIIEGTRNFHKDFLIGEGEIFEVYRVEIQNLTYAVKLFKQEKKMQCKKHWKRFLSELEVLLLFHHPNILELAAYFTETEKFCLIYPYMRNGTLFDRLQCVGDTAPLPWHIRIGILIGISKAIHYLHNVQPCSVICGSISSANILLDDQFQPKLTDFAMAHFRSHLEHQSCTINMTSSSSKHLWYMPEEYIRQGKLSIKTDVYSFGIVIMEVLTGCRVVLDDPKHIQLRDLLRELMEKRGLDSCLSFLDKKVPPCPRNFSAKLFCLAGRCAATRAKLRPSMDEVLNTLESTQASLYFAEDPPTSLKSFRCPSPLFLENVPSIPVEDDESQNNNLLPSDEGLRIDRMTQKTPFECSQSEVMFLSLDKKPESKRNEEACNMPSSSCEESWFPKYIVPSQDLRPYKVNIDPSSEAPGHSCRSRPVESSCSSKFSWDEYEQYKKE
T5 sequence (O60674 whole entry): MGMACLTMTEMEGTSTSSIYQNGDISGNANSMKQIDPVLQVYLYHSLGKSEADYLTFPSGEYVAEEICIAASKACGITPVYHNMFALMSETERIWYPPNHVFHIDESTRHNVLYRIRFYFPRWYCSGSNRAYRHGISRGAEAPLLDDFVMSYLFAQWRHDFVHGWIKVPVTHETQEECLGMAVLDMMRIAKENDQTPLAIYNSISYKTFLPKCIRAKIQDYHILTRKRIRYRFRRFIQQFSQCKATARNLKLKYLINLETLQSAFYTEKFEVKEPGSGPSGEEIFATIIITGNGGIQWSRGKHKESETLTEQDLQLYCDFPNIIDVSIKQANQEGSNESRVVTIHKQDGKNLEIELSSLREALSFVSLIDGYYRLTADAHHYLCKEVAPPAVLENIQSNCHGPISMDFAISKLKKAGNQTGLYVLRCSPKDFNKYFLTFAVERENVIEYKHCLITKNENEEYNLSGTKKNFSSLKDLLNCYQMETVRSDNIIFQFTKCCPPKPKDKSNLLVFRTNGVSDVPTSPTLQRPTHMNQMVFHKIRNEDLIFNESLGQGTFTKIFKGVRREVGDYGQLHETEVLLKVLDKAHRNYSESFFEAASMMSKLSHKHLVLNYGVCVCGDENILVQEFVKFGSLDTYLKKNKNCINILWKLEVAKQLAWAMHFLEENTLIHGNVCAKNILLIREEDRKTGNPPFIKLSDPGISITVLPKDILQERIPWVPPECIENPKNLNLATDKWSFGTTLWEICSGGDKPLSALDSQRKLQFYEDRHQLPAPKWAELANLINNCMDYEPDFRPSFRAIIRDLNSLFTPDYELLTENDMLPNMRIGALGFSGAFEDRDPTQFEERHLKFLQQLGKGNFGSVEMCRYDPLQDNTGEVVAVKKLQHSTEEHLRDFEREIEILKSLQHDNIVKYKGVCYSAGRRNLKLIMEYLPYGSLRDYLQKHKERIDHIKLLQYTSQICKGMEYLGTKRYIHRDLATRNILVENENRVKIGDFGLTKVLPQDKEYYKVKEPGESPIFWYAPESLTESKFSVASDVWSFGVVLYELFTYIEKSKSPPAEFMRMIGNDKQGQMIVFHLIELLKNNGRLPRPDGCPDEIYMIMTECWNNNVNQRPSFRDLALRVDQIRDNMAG
T6 sequence (Q00536 whole entry): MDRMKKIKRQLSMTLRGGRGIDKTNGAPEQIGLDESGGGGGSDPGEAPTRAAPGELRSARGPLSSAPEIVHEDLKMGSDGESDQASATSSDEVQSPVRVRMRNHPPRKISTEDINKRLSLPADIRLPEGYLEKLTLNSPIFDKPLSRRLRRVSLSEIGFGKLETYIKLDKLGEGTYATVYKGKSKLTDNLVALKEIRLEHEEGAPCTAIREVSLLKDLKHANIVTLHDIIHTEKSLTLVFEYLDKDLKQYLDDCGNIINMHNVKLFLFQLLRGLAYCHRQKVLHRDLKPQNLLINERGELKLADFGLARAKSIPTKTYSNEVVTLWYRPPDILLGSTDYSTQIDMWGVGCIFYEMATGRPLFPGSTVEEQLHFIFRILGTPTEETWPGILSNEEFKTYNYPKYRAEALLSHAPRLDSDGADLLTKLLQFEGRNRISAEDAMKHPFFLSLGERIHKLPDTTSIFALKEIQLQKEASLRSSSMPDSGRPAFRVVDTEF
T4 sequence (Q14012 whole entry): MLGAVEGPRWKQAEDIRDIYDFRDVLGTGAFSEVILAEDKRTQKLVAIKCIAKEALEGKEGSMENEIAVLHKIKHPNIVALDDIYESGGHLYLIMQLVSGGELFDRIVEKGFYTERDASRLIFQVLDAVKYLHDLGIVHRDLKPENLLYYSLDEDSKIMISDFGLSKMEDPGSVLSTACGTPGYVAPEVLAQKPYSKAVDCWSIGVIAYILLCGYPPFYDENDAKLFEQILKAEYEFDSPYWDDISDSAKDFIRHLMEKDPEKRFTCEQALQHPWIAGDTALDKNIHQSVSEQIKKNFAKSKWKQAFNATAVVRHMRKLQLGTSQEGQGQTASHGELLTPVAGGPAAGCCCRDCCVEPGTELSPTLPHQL

Structure (SMILES)	% Inhibiton, CaMK1d [3] [%]	% Inhibiton, IRAK3 [4] [%]	% Inhibiton, GCN2 [5, 15] [%]	% Inhibiton, GCN2 [5, 16] [%]	% Inhibiton, GCN2 [5, 17] [%]	% Inhibiton, CaMK1a [6] [%]	% Inhibiton, JAK2 domain2 [7] [%]	% Inhibition PCTAIRE1 [8] [%]	% Inhibition TBK1 [9] [%]	EC50 [12] [µM]	IC50 [13] [µM]	KINOMEscan: LRRK2 [14]	other results
CCOc1cc(C(=O)N2CCC(N3CCN(C)CC3)CC2)ccc1Nc1ncc2c(n1)N(C1CCCC1)c1ccccc1C(=O)N2C [Compound 26]	19.9	37	-6.3	1.6	6.4	36	6.5	-26.9	~57.6	–	–	–	AUC0−∞ ([1]; IV, 1 mg/kg): 1.74383 µg·h/mL; CL ([1]; IV, 1 mg/kg): 0.518 L/h/kg; Cmax ([1]; IV, 1 mg/kg): 0.439 µg/mL; T1/2 ([1]; IV, 1 mg/kg): 8.2 h; Vss ([1]; IV, 1 mg/kg): 4.67 L/kg; AUC0−∞ ([1]; PO, 10 mg/kg): 15.745 µg·h/mL and 15.74548 µg·h/mL; Cmax ([1]; PO, 10 mg/kg): 1.14277 µg/mL; F (oral bioavailability) ([1]; PO, 10 mg/kg): 90%; Tmax ([1]; PO, 10 mg/kg): 4.0 H; inhibitory effect against LRRK2 in cells (Ser910/Ser935 phosphorylation) [2]: did not show any inhibitory effect; effect on phosphorylation of endogenous LRRK2 at Ser910 and Ser935 [10]: did not show inhibitory effects
COc1cc(C(=O)N2CCC(N3CCN(C)CC3)CC2)ccc1Nc1ncc2c(n1)N1CCc3cccc(c31)C(=O)N2C [Compound 24]	–	–	–	–	–	–	–	–	–	0.26 ± 0.04	0.199 ± 0.012	–	effect on phosphorylation of Ser910 and Ser935 [11]: no effect
COc1cc(C(=O)N2CCC(N3CCN(C)CC3)CC2)ccc1Nc1ncc2c(n1)N(C)c1ccccc1C(=O)N2C [15 (LRRK2-IN-1)]	–	–	–	–	–	–	–	–	–	–	–	0	–
COc1cc(C(=O)N2CCC(N3CCN(C)CC3)CC2)ccc1Nc1ncc2c(n1)N(C1CCCC1)c1ccccc1C(=O)N2C [Compound 25, 11-cyclopentyl-2-((2-methoxy-4-(4-(4-methylpiperazin-1-yl)piperidine-1-carbonyl)phenyl)amino)-5-methyl-5H-benzo[e]pyrimido[5,4-b][1,4]diazepin-6(11H)-one]	5.8	40.5	4.5	-1.6	-1.5	19.1	-9.0	-25.8	-96.8	0.08 ± 0.02	0.082 ± 0.009	28	–
